According to patent publication US9561228B2 (Celgene Avilomics Research, Inc., priority 2013, dated 2017):

Key:
[1] = system: ERK1/2 phosphorylation of p90RSK in HT29 cells; assay: pRSK MSD Assay in HT29 cells; format: cell-based; settings: Homo sapiens, HT-29, read-out: ERK1/ERK2 PRSK MSD HT29 EC50
Procedure, shortened: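 Phospho-RSK level, read by electrochemiluminescence on RSK-antibody-coated MSD plates with a phospho-RSK/Sulfo-tag detection pair, reports cellular ERK1/2 activity. HT29 cells, kept overnight in 0.1% FBS medium, were exposed to compound for 120 min at 37° C before lysis.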

[2] = system: ERK1/2 phosphorylation of p90RSK in HCT116 cells; assay: Detection of total and phospho-RSK by MSD ELISA (HCT116); format: cell-based; settings: Homo sapiens, HCT-116, read-out: ERK1/ERK2 PRSK HCT116 EC50
Description: Detection of Total and Phospho-RSK by MSD ELISA (HCT116)
(§1) The protocol below describes an assay to measure the kinase activity of ERK1/2 to phosphorylate a substrate, p90RSK, in the presence or absence of a test compound.
HCT116 cells were grown in RPMI/10% FBS. Prior to the assay, 50,000 cells per well were plated in a 96 well flat bottom plate. Cells were cultured overnight in an incubator at 37° C.
Compound stocks were 10 mM in DMSO. A 1000× dilution was made in DMSO. 1 uL of the DMSO solution was transferred to 1 ml RPMI/10% FBS in a deep well plate. Media in the cell plate was discarded, and 100 uL of the compound-containing media was added. The preparation was incubated at 37° C. for 2 hrs.
Preparation of cell lysates are described below.
pRSK or total RSK MSD Assay
(§2) MSD plates: Blank MSD plates were coated with 30 uL capture antibody (BD 610226) at a final concentration of 1 ug/mL in PBS. Both pRSK and total RSK MSD assays used the same capture antibody at the same concentration. Antibody stock concentration was 250 ug/mL. Once antibody solution was added to MSD plate, the sides were tapped to be certain it was coated completely (visual inspection). It was then covered and placed at 4° C. overnight on a level surface.
Block MSD Plate: The coating antibody was removed and the plate was washed on a plate washer in MSD wash buffer. The last bit of wash solution was tapped out and 150 uL/well 3% BSA (MSD Blocker A) in MSD wash buffer was added. The preparation was placed on a shaker at room temperature for at least an hour.
Add samples: Media was removed from compound-treated cells and replaced with 55 uL/well MSD cell lysis buffer containing protease and phosphotase I & II inhibitors. The preparations was incubate on a shaker in a cold room for 30-45 min. The blocked MSD plate was washed on a plate washer, and the last bit of wash solution was tapped out. Next was added 50 uL (of the 55 uL) cell lysate in a well-well transfer. The preparation was covered and incubated on shaker at room temp for 2 hours. The lysate was then removed and washed on plate washer 3 times. The last bit of wash buffer was then tapped out and replaced with 25 uL/well detection antibody (described below).
For pRSK detection, a pRSK antibody stock of 21 ug/mL was prepared as follows: 1 ug/mL pRSK Ser380 antibody (Cell Signaling Technology, Cat. #9335)+1:750 anti-rabbit SulfoTag (from MSD, R32AB-1) in 1% BSA in MSD wash buffer.
(§3) For total RSK detection, a total RSK antibody stock of 200 ug/mL was prepared as follows: 1 ug/mL total RSK (Santa Cruz sc-231G) antibody+1:750 anti-goat SulfoTag (from MSD, R32AG-1) in 1% BSA in MSD wash buffer.
The plate was incubated for 1 hr at room temperature on a shaker, followed by three washes. The last bit of wash buffer was tapped out. Next, 150 uL/well 1×MSD Read buffer was added and the plate was analyzed by the MSD reader.

[3] = system: ERK1/2 phosphorylation of p90RSK in A375 cells; assay: Detection of total and phosphor-RSK by MSD ELISA (A375); format: cell-based; settings: Homo sapiens, A-375, read-out: ERK1/ERK2 PRSK A375 EC50
Description: Detection of Total and Phosphor-RSK by MSD ELISA (A375)
as §1
A375 cells were grown in DMEM/10% FBS. Twenty four hours prior to the assay, 50,000 cells per well were plated in a 96 well flat bottom plate. Once cells attached to the plate, the medium was replaced with 100 ul of DMEM/0.1% FBS. Cells were cultured overnight in an incubator at 37° C.
Compound stock solutions of 10 mM in DMSO were prepared. 1000× dilutions were then prepared in DMSO. 1 uL of DMSO solution was then transferred to 1 ml DMEM/0.1% FBS in a deep well plate. Cell plate media was discarded, followed by addition of 100 uL of the compound-containing media. The preparation was incubated at 37° C. for 2 hrs.
Cell lysates were prepared as described below.
pRSK or Total RSK MSD Assay
as §2, with “added to the MSD plate,” for “added to MSD plate,”
Block MSD Plate: The coating antibody was removed and the plate was washed on a plate washer in MSD wash buffer. The last bit of wash solution was tapped out and 150 uL/well of 3% BSA in MSD wash buffer was added in. The preparation was placed on a shaker at room temperature for at least an hour.
Add samples: Media was removed from compound-treated cells and replaced with 55 uL/well MSD cell lysis buffer containing protease and phosphotase I & II inhibitors. The preparation was incubated on a shaker in a cold room for 30-45 min. The blocked MSD plate was washed a on plate washer, tapping out the last bit of wash solution, followed by addition of 50 uL (of the 55 ul) cell lysate in a well-well transfer. The preparation was covered and incubated on a shaker at room temp for 2 hours. The lysate was removed, washed on a plate washer 3 times, and the last bit of wash buffer was tapped out and replace with 25 uL/well detection antibody (described below).
For pRSK detection, a pRSK antibody stock of 21 ug/mL was prepared as follows: 1 ug/mL pRSK Ser380 antibody (Cell Signaling Technology, Cat. #9335)+1:750 anti-rabbit SulfoTag (Mesoscale Discovery, Cat. # R32AB-1) in 1% BSA in MSD wash buffer.
as §3
The plate was incubated for 1 hr at room temperature on a shaker, followed by three washings. The last bit of wash buffer was tapped out. 150 uL/well 1×MSD Read buffer was added and the plate was then analyzed.

[4] = molecular target: T1, MEK1 activated ERK1 (Homo sapiens, UniProt P27361); assay: Omnia continuous-read kinase assay for potency against MEK1 activated ERK1; format: biochemical; settings: ATP at KM, WT
T1 construct: purchased Millipore (Billerica, Mass.) 14-439-K
T1 sequence (P27361 whole entry): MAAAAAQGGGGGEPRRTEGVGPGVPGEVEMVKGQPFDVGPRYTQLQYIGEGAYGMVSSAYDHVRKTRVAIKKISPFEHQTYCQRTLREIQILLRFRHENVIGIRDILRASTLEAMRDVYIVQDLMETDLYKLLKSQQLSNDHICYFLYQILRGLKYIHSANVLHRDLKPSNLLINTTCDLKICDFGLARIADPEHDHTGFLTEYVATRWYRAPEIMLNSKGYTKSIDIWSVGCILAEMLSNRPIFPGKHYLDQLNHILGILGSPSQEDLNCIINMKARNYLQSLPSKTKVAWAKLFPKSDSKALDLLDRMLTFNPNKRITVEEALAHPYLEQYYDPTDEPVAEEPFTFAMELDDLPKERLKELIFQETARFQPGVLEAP
Procedure, shortened: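 Apparent IC50 came from initial reaction slopes (RFU vs time) plotted against log inhibitor with a variable-slope fit. Reactions were started with ERK1 (4 nM final) added to 50 μM ATP, roughly at its appKM, and 10 μM Sox-conjugated ST17 peptide in 20 mM Tris pH 7.5, 5 mM MgCl2. Fluorescence was monitored every 71 seconds.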

SMILES	EC50 [1] [nM]	EC50 [2] [nM]	EC50 [3] [nM]	IC50 [4] [nM]
C=CC(=O)Nc1ccccc1Nc1nc(Nc2cc(OC)nc(N3CCN(S(C)(=O)=O)CC3)c2)ncc1C(F)(F)F [Compound I-290, N-(2-((2-((2-Methoxy-6-(4-(methylsulfonyl)piperazin-1-yl)pyridin-4-yl)amino)-5-(trifluoromethyl)pyrimidin-4-yl)amino)phenyl)acrylamide]	> 1000	501 to 999	> 1000	–
CCC(=O)Nc1cc(C)ccc1Nc1nc(Nc2cc(OC)ncc2C)ncc1C(F)(F)F [Compound I-352, N-(2-((2-((2-methoxy-5-methylpyridin-4-yl)amino)-5-(trifluoromethyl)pyrimidin-4-yl)amino)-5-methylphenyl)propionamide]	–	> 1000	> 1000	–
C=CC(=O)Nc1cc(C)ccc1Nc1nc(Nc2cc(OC)nc(N3CCC3)c2)ncc1C(F)(F)F [Compound I-329, N-(2-((2-((2-(azetidin-1-yl)-6-methoxypyridin-4-yl)amino)-5-(trifluoromethyl)pyrimidin-4-yl)amino)-5-methylphenyl)acrylamide]	101 to 500	101 to 500	> 1000	–
C=CC(=O)Nc1cc(C)ccc1Nc1nc(N[C@@H]2CCCN(S(=O)(=O)C=C)C2)ncc1C(F)(F)F [Compound I-278, (R)—N-(5-Methyl-2-((5-(trifluoromethyl)-2-((1-(vinylsulfonyl)piperidin-3-yl)amino)pyrimidin-4-yl)amino)phenyl)acrylamide]	> 1000	> 1000	> 1000	–
C=CC(=O)Nc1cc(C)ccc1Nc1nc(Nc2cnnc(Cl)c2)ncc1C(F)(F)F [Compound I-331, N-(2-((2-((6-chloropyridazin-4-yl)amino)-5-(trifluoromethyl)pyrimidin-4-yl)amino)-5-methylphenyl)acrylamide]	–	> 1000	501 to 999	–
C=CC(=O)Nc1cc(C)ccc1Nc1nc(N[C@@H]2CCN(S(=O)(=O)C=C)C2)ncc1C(F)(F)F [Compound I-280, (R)—N-(5-Methyl-2-((5-(trifluoromethyl)-2-((1-(vinylsulfonyl)pyrrolidin-3-yl)amino)pyrimidin-4-yl)amino)phenyl)acrylamide]	–	> 1000	> 1000	–

Other lines, results leading:

EC50 [1] [nM]	EC50 [2] [nM]	EC50 [3] [nM]	IC50 [4] [nM]	SMILES
501 to 999	501 to 999	501 to 999	–	C=CC(=O)Nc1cc(C)ccc1Nc1nc(Nc2cnnc(OC)c2)ncc1C(F)(F)F [Compound I-335, N-(2-((2-((6-methoxypyridazin-4-yl)amino)-5-(trifluoromethyl)pyrimidin-4-yl)amino)-5-methylphenyl)acrylamide]
101 to 500	101 to 500	101 to 500	–	C=CC(=O)Nc1cc(OCC(=O)N2CCN(C(C)=O)CC2)ccc1Nc1nc(Nc2cc(OC)ncc2C)ncc1C(F)(F)F [Compound I-404, N-(5-(2-(4-acetylpiperazin-1-yl)-2-oxoethoxy)-2-((2-((2-methoxy-5-methylpyridin-4-yl)amino)-5-(trifluoromethyl)pyrimidin-4-yl)amino)phenyl)acrylamide]
< 100	–	< 100	< 100	C=CC(=O)Nc1cc(OC(C)(C)C(N)=O)ccc1Nc1nc(Nc2cc(OC)ncc2C)ncc1C(F)(F)F [Compound I-414, N-(5-((1-amino-2-methyl-1-oxopropan-2-yl)oxy)-2-((2-((2-methoxy-5-methylpyridin-4-yl)amino)-5-(trifluoromethyl)pyrimidin-4-yl)amino)phenyl)acrylamide]
–	> 1000	101 to 500	–	C=CC(=O)Nc1ccccc1Nc1nc(Nc2c[nH]nc2C)ncc1C(F)(F)F [Compound I-330, N-(2-((2-((3-methyl-1H-pyrazol-4-yl)amino)-5-(trifluoromethyl)pyrimidin-4-yl)amino)phenyl)acrylamide]
501 to 999	> 1000	501 to 999	–	C#CCOc1cc(C)c(Nc2ncc(C(F)(F)F)c(Nc3ccc(C)cc3NC(=O)C=C)n2)cc1C(N)=O [Compound I-362, 5-((4-((2-acrylamido-4-methylphenyl)amino)-5-(trifluoromethyl)pyrimidin-2-yl)amino)-4-methyl-2-(prop-2-yn-1-yloxy)benzamide]
